# Assay results: patent US20250257059A1, “PROTEIN TYROSINE PHOSPHATASE INHIBITORS AND USES THEREOF” (Nerio Therapeutics, Inc., priority 2022, published 2025)
# Values joined by “and” are separate entries in the source; they are usually repeats but may differ in a detail not shown here. Equal entries are not always repeated. Where two headings read alike, the source gives them in different places.
# Legend:
# [1] = target: full-length human PTPN2 (TC45) (1-387) (Homo sapiens (Human), UniProt P17706); assay: Enzymatic assay used to determine potency of PTPN2 inhibitors (full length PTPN2 DiFMUP assay); type: biochemical; conditions: 0.5 nM PTPN2, 100 μM DiFMUP, 30 min at room temperature
# full-length human PTPN2 (TC45) (1-387), sequence (P17706 other isoform, or with tags, fused parts or gaps): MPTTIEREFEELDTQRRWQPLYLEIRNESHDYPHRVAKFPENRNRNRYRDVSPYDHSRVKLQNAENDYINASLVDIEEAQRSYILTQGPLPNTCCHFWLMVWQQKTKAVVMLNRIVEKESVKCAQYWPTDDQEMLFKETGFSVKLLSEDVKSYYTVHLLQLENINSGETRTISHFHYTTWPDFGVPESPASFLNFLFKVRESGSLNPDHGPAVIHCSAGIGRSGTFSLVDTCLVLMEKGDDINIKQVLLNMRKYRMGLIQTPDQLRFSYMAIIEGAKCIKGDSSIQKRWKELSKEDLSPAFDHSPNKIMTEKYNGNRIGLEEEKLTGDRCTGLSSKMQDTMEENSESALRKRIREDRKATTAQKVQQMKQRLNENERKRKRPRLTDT
# Procedure: Compound activity was determined in an in vitro enzymatic assay using untagged, full-length human PTPN2 (TC45) (1-387) protein. PTPN2 was produced in E. coli as a GST-TEV fusion and the GST was removed by TEV digestion, followed by additional purification to yield full-length PTPN2 (SEQ ID 1). PTPN2 enzyme was diluted in assay buffer (50 mM HEPES pH7.5, 0.2 mM EDTA, 1 mM DTT, 0.02% Brij-35, 0.02% BSA) to a final concentration of 0.5 nM and added to black 384-well non-binding plates (Greiner, 781900). Compounds were subsequently added using a Tecan D300e dispenser. Following a 10 min incubation at room temperature, DiFMUP substrate (ThermoFisher, D22065) was added to a final concentration of 100 μM. Plates were transferred to a SpectraMax plate reader (Molecular Devices) and fluorescence intensity was measured (ex 358, em 455) after a 30 min incubation at room temperature. […] A four-parameter curve fit was used to determine IC50 values from % inhibition data.
# [2] = tested on: murine B16F10 melanoma cell line; assay: B16F10 IFNγ-induced cellular growth inhibition assay (xCELLigence RTCA); type: cell-based; conditions: B16F10 cells, 1 ng/mL mouse IFNγ, AUC of growth curve, read-out: B16 IFNγ Mediated Growth Inhibition Assay: AVG IC50
# Procedure: Compound activity was determined using an interferon gamma (IFNγ)-induced cellular growth inhibition assay with the murine B16F10 melanoma cell line on an Agilent xCELLigence Real-Time Cell Analysis platform (RTCA). RTCA E-Plate View 96 plates (Agilent, 300601010) were pre-equilibrated with 50 μL of assay media (DMEM+10% FBS, Gibco 10566-024, Gibco 10082-147) at 37° C. in a humidified incubator before taking an initial measurement of impedance (sweep). B16F10 cells cultured in assay media were dissociated with TrypLE Express (Gibco 12605-010) for five minutes at 37° C., diluted in 3 volumes of assay buffer, centrifuged for 5 minutes at 500×g at room temperature before diluting cells to 7,700 cells/mL in assay media, plating 130 μL/well (1,000 cells/well) in the inner 60 wells of the assay plate, and adding 150 μL of assay media to the outer wells of the plate. Cells were incubated at room temperature for 20 min to allow cells to settle before placing them in the xCELLigence reader and incubating overnight at 37° C., sweeping wells every 15 minutes. After 24 hours, well readings were paused, plates were removed from the incubator and compounds were added using a Tecan D300e dispenser. All wells were normalized to a final concentration of 0.5% DMSO. Following a 30 min incubation at 37° C., recombinant mouse IFNγ (R&D Systems™ 485MI100) was diluted to 10 ng/mL in assay media and 20 μL was added to assay wells (1 ng/mL final concentration). Assay plates were placed in the xCELLigence reader and swept every 15 minutes.
SMILES,"IC50 ([2]; Mus musculus, B16-F10, 48 h) [nM]",IC50 [1],IC50 ([2]; 48 hours) [nM]
"O=C1CN(c2c(O)cc(C[C@H]3CCNC3)cc2F)S(=O)(=O)N1 (single isomer, unassigned) [Example 25]",,15 nM,
"O=C1CN(c2c(O)cc(C[C@@H]3CCNC3)cc2F)S(=O)(=O)N1 (single isomer, unassigned) [Example 26]",,8 nM,
"CN1CCC(Cc2cc(O)c(N3CC(=O)NS3(=O)=O)c(F)c2)C1 (stereo not drawn) [Example 1, 5-(2-fluoro-6-hydroxy-4-((1-methylpyrrolidin-3-yl)methyl)phenyl)-1,2,5-thiadiazolidin-3-one 1,1-dioxide]",,7 nM,
CC(C)N1CCC(Cc2cc(O)c(N3CC(=O)NS3(=O)=O)c(F)c2)C1 (stereo not drawn) [Example 2],28200,14 nM,
CN(C)CCN1CCC(Cc2cc(O)c(N3CC(=O)NS3(=O)=O)c(F)c2)C1 (stereo not drawn) [Example 3],> 100000,3 nM,
O=C1CN(c2c(O)cc(CC3CCN(Cc4cnco4)C3)cc2F)S(=O)(=O)N1 (stereo not drawn) [Example 4],> 100000,14 nM,
O=C1CN(c2c(O)cc(CC3CCN(CCN4CCCCC4)C3)cc2F)S(=O)(=O)N1 (stereo not drawn) [Example 5],84600,7 nM,
O=C1CN(c2c(O)cc(CC3CCN(Cc4ncco4)C3)cc2F)S(=O)(=O)N1 (stereo not drawn) [Example 6],> 100000,20 nM,
O=C1CN(c2c(O)cc(CC3CCN(Cc4ccco4)C3)cc2F)S(=O)(=O)N1 (stereo not drawn) [Example 7],2470,,
CCCCN1CCC(Cc2cc(O)c(N3CC(=O)NS3(=O)=O)c(F)c2)C1 (stereo not drawn) [Example 8],18600,88 nM,
CC(C)CN1CCC(Cc2cc(O)c(N3CC(=O)NS3(=O)=O)c(F)c2)C1 (stereo not drawn) [Example 9],13200,21 nM,
O=C1CN(c2c(O)cc(CC3CCN(CC4CC4)C3)cc2F)S(=O)(=O)N1 (stereo not drawn) [Example 10],,50 nM,17400
CCCN1CCC(Cc2cc(O)c(N3CC(=O)NS3(=O)=O)c(F)c2)C1 (stereo not drawn) [Example 11],5180,18 nM,
O=C1CN(c2c(O)cc(CC3CCN(Cc4ccoc4)C3)cc2F)S(=O)(=O)N1 (stereo not drawn) [Example 12],4340,12 nM,
CCCCCCN1CCC(Cc2cc(O)c(N3CC(=O)NS3(=O)=O)c(F)c2)C1 (stereo not drawn) [Example 13],36200,13 nM,
O=C1CN(c2c(O)cc(CC3CCN(CC4CCCO4)C3)cc2F)S(=O)(=O)N1 (stereo not drawn) [Example 14],52800,14 nM,
O=C1CN(c2c(O)cc(CC3CCN(CC4CCOC4)C3)cc2F)S(=O)(=O)N1 (stereo not drawn) [Example 15],> 48000,24 nM,
O=C1CN(c2c(O)cc(CC3CCN(Cc4cocn4)C3)cc2F)S(=O)(=O)N1 (stereo not drawn) [Example 16],35800,16 nM,
O=C1CN(c2c(O)cc(CC3CCN(Cc4ncc[nH]4)C3)cc2F)S(=O)(=O)N1 (stereo not drawn) [Example 17],> 52000,7 nM,
O=C1CN(c2c(O)cc(CC3CCN(Cc4ccn[nH]4)C3)cc2F)S(=O)(=O)N1 (stereo not drawn) [Example 18],> 58000,7 nM,
CC(C)CCN1CCC(Cc2cc(O)c(N3CC(=O)NS3(=O)=O)c(F)c2)C1 (stereo not drawn) [Example 19],8430,12 nM,
CC(C)(C)CN1CCC(Cc2cc(O)c(N3CC(=O)NS3(=O)=O)c(F)c2)C1 (stereo not drawn) [Example 20],2620,15 nM,
O=C1CN(c2c(O)cc(CC3CCN(CC4CCCC4)C3)cc2F)S(=O)(=O)N1 (stereo not drawn) [Example 21],4590,15 nM,
O=C1CN(c2c(O)cc(CC3CCN(CC4CCC4)C3)cc2F)S(=O)(=O)N1 (stereo not drawn) [Example 22],1230,10 nM,
CC(C)(C)CCN1CCC(Cc2cc(O)c(N3CC(=O)NS3(=O)=O)c(F)c2)C1 (stereo not drawn) [Example 23],4330,14 nM,
CCCCCN1CCC(Cc2cc(O)c(N3CC(=O)NS3(=O)=O)c(F)c2)C1 (stereo not drawn) [Example 24],5900,15 nM,
O=C1CN(c2c(O)cc(CC3CCNC3)cc2F)S(=O)(=O)N1 (stereo not drawn) [Example 27],9730,7 nM,
O=C1CN(c2c(O)cc(CC3CCCN(Cc4cocn4)C3)cc2F)S(=O)(=O)N1 (stereo not drawn) [Example 47],,98 nM,
O=C1CN(c2c(O)cc(CC3CCCNCC3)cc2F)S(=O)(=O)N1 (stereo not drawn) [Example 57],,15 nM,
O=C1CN(c2c(O)ccc(CC3CCCCN3)c2F)S(=O)(=O)N1 (stereo not drawn) [Example 75],,20 nM,

# Further lines, with some results ahead:
"IC50 ([2]; Mus musculus, B16-F10, 48 h) [nM]",SMILES,IC50 [1],IC50 ([2]; 48 hours) [nM]
> 100000,"O=C1CN(c2c(O)cc(C[C@H]3CCCNCC3)cc2F)S(=O)(=O)N1 (single isomer, unassigned) [Example 58]",51 nM,
> 47000,"O=C1CN(c2c(O)cc(C[C@@H]3CCCNCC3)cc2F)S(=O)(=O)N1 (single isomer, unassigned) [Example 59]",16 nM,
363,"CC(C)CCN1CCCC[C@@H]1Cc1ccc(O)c(N2CC(=O)NS2(=O)=O)c1F (single isomer, unassigned) [Example 81]",3 nM,
36300,"CC(C)CCN1CCCC[C@H]1Cc1ccc(O)c(N2CC(=O)NS2(=O)=O)c1F (single isomer, unassigned) [Example 82]",76 nM,
2430,"CC(C)C[C@H]1CCN(CCc2cc(O)c(N3CC(=O)NS3(=O)=O)c(F)c2)C1 (single isomer, unassigned) [Example 119]",2 nM and 3 nM,1600
1840,"O=C1CN(c2c(O)cc(CCN3CC[C@H](C(F)(F)F)C3)cc2F)S(=O)(=O)N1 (single isomer, unassigned) [Example 123]",2 nM,
> 57000,CCCC1NCCC1Cc1cc(O)c(N2CC(=O)NS2(=O)=O)c(F)c1 (stereo not drawn) [Example 28],23 nM,
> 62000,CCCC1CNCC1Cc1cc(O)c(N2CC(=O)NS2(=O)=O)c(F)c1 (stereo not drawn) [Example 29],13 nM,
> 13000,CCC1CNCC1Cc1cc(O)c(N2CC(=O)NS2(=O)=O)c(F)c1 (stereo not drawn) [Example 30],13 nM,
3450,CC(C)CCCN1CCCCC1Cc1ccc(O)c(N2CC(=O)NS2(=O)=O)c1F (stereo not drawn) [Example 79],,
22700,O=C1CN(c2c(O)ccc(CC3CCCCN3CCC3CCCC3)c2F)S(=O)(=O)N1 (stereo not drawn) [Example 80],,
8910,O=C1CN(c2c(O)cc(CCN3CCOCC3)cc2F)S(=O)(=O)N1 [Example 89],,
1540,O=C1CN(c2c(O)cc(CCN3CCCC(F)C3)cc2F)S(=O)(=O)N1 (stereo not drawn) [Example 97],,
723,COC1CCN(CCc2cc(O)c(N3CC(=O)NS3(=O)=O)c(F)c2)CC1 [Example 104],,
130,CC(C)(C)C1CCN(CCc2cc(O)c(N3CC(=O)NS3(=O)=O)c(F)c2)C1 (stereo not drawn) [Example 111],,
165,O=C1CN(c2c(O)cc(CCN3CCC4(CCCC4)C3)cc2F)S(=O)(=O)N1 [Example 112],,
216,O=C1CN(c2c(O)cc(CCN3CCC4(CCOCC4)C3)cc2F)S(=O)(=O)N1 [Example 113],,
331,COC[C@@H]1CCN(CCc2cc(O)c(N3CC(=O)NS3(=O)=O)c(F)c2)C1 [Example 117],,
2640,CC(C)C[C@@H]1CCN(CCc2cc(O)c(N3CC(=O)NS3(=O)=O)c(F)c2)C1 [Example 120],,
2670,O=C1CN(c2c(O)cc(CCN3CC[C@@H](C(F)(F)F)C3)cc2F)S(=O)(=O)N1 [Example 122],,
657,CC1(C)CN(CCc2cc(O)c(N3CC(=O)NS3(=O)=O)c(F)c2)C1 [Example 127],,
610,O=C1CN(c2c(O)cc(CCN3Cc4ccccc4C3)cc2F)S(=O)(=O)N1 [Example 128],,
516,CC(C)[C@@H]1CCN(CCc2cc(O)c(N3CC(=O)NS3(=O)=O)c(F)c2)C1 [Example 134],,
290,CC(C)[C@H]1CCN(CCc2cc(O)c(N3CC(=O)NS3(=O)=O)c(F)c2)C1 [Example 135],,
937,O=C1CN(c2c(O)cc(CCN3CC(F)C3)cc2F)S(=O)(=O)N1 [Example 136],,
2160,O=C1CN(c2c(O)cc(CCN3CC(C(F)(F)F)C3)cc2F)S(=O)(=O)N1 [Example 137],,
472,CC1CN(CCc2cc(O)c(N3CC(=O)NS3(=O)=O)c(F)c2)C1 [Example 140],,
